Laboratory results: patent US4141974A, “Veterinary method employing certain aureolic acid compounds” (Imperial Chemical Industries Limited, priority 1976, dated 1979)

Columns and labels:
pigs = assay: Pig growth trial, 9 weeks (Example 11); type: in vivo
Text: Seventy-two pigs weighing approximately 20kg. each were allocated into 8 matched treatment groups of 9 pigs, on the basis of sex and live weight. Each treatment group was allocated to one particular diet, and each animal in each group was fed individually on its appropriate diet, accurately weighed according to a feeding scale based on live weight, and adjusted weekly. The daily live weight gain in gammes (DLWG) and food conversion ratio (FCR -- the ratio of kg. feed per kg. of live weight gain) were determined for each group at the end of a 9 week trial period.

chickens [1] = assay: Chicken growth trial, chromomycin A3 (Example 12); type: in vivo
Text: (§1) Groups of 20 randomised 1-day old chickens were place in small floor pens, bedded with wood shavings and provided with automatic drinking fountains. The birds in 16 randomly chosen such pens were fed for 6 days on a nutritionally balanced control diet containing no known growth promoter, and the birds in other pens (four pens per treatment diet) were fed for the same period on the same basal diet to which the indicated weight of mixed mithramycins obtained as in Example 2 or 3, or a known chicken growth promoter, penicillin or nitrovin as a positive control, was added. At the end of the test period, the mean weight per bird in the control group and each test group was determined and the percentage weight increase for each test group as compared with the control group was calculated. The following results were obtained:
The procedure described in Example 4 was repeated, using chromomycin A3, obtained from Takeda Chemical Industries Ltd., Osaka, Japan, instead of the mixed mithramycins.

chickens [2] = assay: Chicken growth trial, 1-day old chickens, 6 days (Example 4); type: in vivo; conditions: for Mean final weight per bird: * significant at p<0.001
Text: as §1, with “calculated.” for “calculated. The following results were obtained:”

chickens [3] = assay: Chicken growth trial, pen of 20 birds (Example 5); type: in vivo; conditions: for Mean final weight-20 birds: mean total weight of a pen of 20 birds
Text: as §1
In a further growth trial, the procedure described in Example 4 was repeated. In this case, the weights are expressed as the mean total weight of a pen of 20 birds.

discard cockerels = assay: Growth trial in discard cockerels, 4 weeks (Example 10); type: in vivo, chicken; conditions: 10 ppm in basal diet
Text: as §1
The procedure described in Example 4 was repeated using 4 pens each of 30 discard cockerels for each diet, and allowing the trial to run for 4 weeks.

chickens [4] = assay: Chicken growth trial, magnesium chelate of Example 2 (Example 8); type: in vivo; conditions: * P<0.001
Method: Groups of 20 randomised 1-day old chickens were place in small floor pens, bedded with wood shavings and provided with automatic drinking fountains. […] At the end of the test period, the mean weight per bird in the control group and each test group was determined and the percentage weight increase for each test group as compared with the control group was calculated.

chickens [5] = assay: Chicken growth trial, mixed mithramycins from Streptomyces argillaceus (Example 7); type: in vivo
Text: as §1
The procedure described in Example 4 was repeated, using the mixed mithramycins obtained by culturing Streptomyces argillaceus A.T.C.C. 12956 in known manner, and the following results were obtained: […]

chickens [6] = assay: Chicken growth trial, magnesium chelate of mithramycin A from S. argillaceus (Example 9); type: in vivo; conditions: * P<0.001
Text: The procedure described in Example 4 was repeated, using the magnesium chelate of mithramycin A, obtained in known manner from fermentation of S. argillaceus A.T.C.C.

[7] = 10 ppm in basal diet, nitrovin * p<0.001, chromomycin A3 *** p<0.05

`COC(=O)N/N=C/c1c[n+]([O-])c2ccccc2[n+]1[O-]` [carbadox] was tested, and the “FCR (food conversion ratio)” value (pigs; high copper diet, 20 ppm, * significant at p<0.05) was 2.184 kg. feed per kg. of live weigh, the “DLWG (daily live weight gain)” value (pigs; high copper diet, 20 ppm, ** significant at p<0.01) was 672.7 gammes and the “FCR (food conversion ratio)” value (pigs; low copper diet, 20 ppm) was 2.292 kg. feed per kg. of live weigh. The “DLWG (daily live weight gain)” value (pigs; low copper diet, 20 ppm, * significant at p<0.05) was 630.6 gammes.

For `CO[C@@H]1[C@H](O)C[C@@H](O[C@@H]2C[C@H](Oc3cc4cc5c(c(O)c4c(O)c3C)C(=O)[C@@H](O[C@H]3C[C@@H](O[C@H]4C[C@@H](O[C@H]6C[C@](C)(O)[C@@H](OC(C)=O)[C@H](C)O6)[C@H](O)[C@@H](C)O4)[C@H](O)[C@@H](C)O3)[C@H]([C@H](OC)C(=O)[C@@H](O)[C@@H](C)O)C5)O[C@H](C)[C@@H]2OC(C)=O)O[C@@H]1C` [chromomycin A3], the “% effect v. control” value (chickens [1]; 5 ppm in basal diet) was 7.3%, the “Mean final weight per bird” value (chickens [1]; 5 ppm in basal diet, ** significant at p<0.01) was 44.51 g and the “% effect v. control” value (chickens [1]; 10 ppm in basal diet) was 5.4%. The “Mean final weight per bird” value (chickens [1]; [7]) was 43.68 g.

With `N=C(N)NN=C(/C=C/c1ccc([N+](=O)[O-])o1)/C=C/c1ccc([N+](=O)[O-])o1` [nitrovin] the “% effect v. control (weight increase)” value (chickens [2]; 10 ppm in basal diet) was 12.7%, the “Mean final weight per bird” value (chickens [2]; 10 ppm in basal diet) was 42.99 g and the “DLWG (daily live weight gain)” value (pigs; high copper diet, 10 ppm) was 579.2 gammes. For the same compound, the “FCR (food conversion ratio)” value (pigs; high copper diet, 10 ppm) was 2.308 kg. feed per kg. of live weigh, the “DLWG (daily live weight gain)” value (pigs; low copper diet, 10 ppm) was 567.0 gammes and the “FCR (food conversion ratio)” value (pigs; low copper diet, 10 ppm) was 2.381 kg. feed per kg. of live weigh. The “% effect v. control” value (chickens [3]; 10 ppm in basal diet) was 11.6%, the “Mean final weight-20 birds” value (chickens [3]; 10 ppm in basal diet) was 826 g and the Food conversion ratio (discard cockerels; ** significant at p<0.001) was 1.800. The “Mean final weight per bird” value (discard cockerels; mixed mithramycins * significant at p<0.01, nitrovin unmarked) was 339 g, the “% effect v. control” value (chickens [4]; 10 ppm in basal diet) was 10.6% and the “Mean final weight per bird” value (chickens [4]; 10 ppm in basal diet) was 45.67 g. For the same compound, the “% effect v. control” value (chickens [1]; 10 ppm in basal diet) was 9.7%, the “Mean final weight per bird” value (chickens [1]; [7]) was 45.46 g and the “% effect v. control” value (chickens [5]; 10 ppm in basal diet) was 12.9%. For the same compound, the “Mean final weight per birds” value (chickens [5]; 10 ppm in basal diet) was 45.2 g, the “% effect v. control” value (chickens [6]; 10 ppm in basal diet) was 10.6% and the “Mean final weight per bird” value (chickens [6]; 10 ppm in basal diet) was 45.67 g.

`CC1(C)S[C@@H]2[C@H](NC(=O)Cc3ccccc3)C(=O)N2[C@H]1C(=O)O` [penicillin] was tested, and the “% effect v. control (weight increase)” value (chickens [2]; 25 ppm in basal diet) was 11.6%, the “Mean final weight per bird” value (chickens [2]; 25 ppm in basal diet) was 42.57 g and the “% effect v. control” value (chickens [3]; 25 ppm in basal diet) was 18.25%. For the same compound, the “Mean final weight-20 birds” value (chickens [3]; 25 ppm in basal diet) was 876 g, the “% effect v. control” value (chickens [4]; 25 ppm in basal diet) was 16.1% and the “Mean final weight per bird” value (chickens [4]; 25 ppm in basal diet) was 47.95 g. For the same compound, the “% effect v. control” value (chickens [1]; 25 ppm in basal diet) was 12.7%, the “Mean final weight per bird” value (chickens [1]; 25 ppm in basal diet, * significant at p<0.001) was 46.73 g and the “% effect v. control” value (chickens [5]; 25 ppm in basal diet) was 18.8%. The “Mean final weight per birds” value (chickens [5]; 25 ppm in basal diet) was 47.6 g, the “% effect v. control” value (chickens [6]; 25 ppm in basal diet) was 16.1% and the “Mean final weight per bird” value (chickens [6]; 25 ppm in basal diet) was 47.95 g.
